From patent publication US10231939B2, “Hydroxytyrosol and oleuropein compositions for induction of DNA damage, cell death and LSD1 inhibition” (priority 2012, dated 2019)

How the values were obtained:
Test in all cases: Cell proliferation (Cell Titer-Blue Assay)
SNU-16 cells = format: cell-based; conditions: Homo sapiens
Excerpt: (§1) Human chronic myelogenous leukemia K562 cells (ATCC No. CCL-243), human large B-lymphocyte non-Hodgkin's lymphoma LCL cells, human leukemic monocyte lymphoma U937 cells (ATCC No. CRL-1593.2), human prostate adenocarcinoma PC3 (ATCC No. CRL-1435) and human gastric carcinoma SNU-16 cells (ATCC No. CRL-5974) were maintained in complete-Royal Park Memorial Institute (RPMI) 1640 medium supplemented with 20 mmol/L HEPES (pH 7.4; GIBCO-Invitrogen, Carlsbad, Calif., USA), 10% (v/v) fetal bovine serum (FBS), 2 mmol/L L-glutamine (GIBCO-Invitrogen), and 80 units gentamicin (GIBCO-Invitrogen). Cells were cultured in suspension in a humidified atmosphere of 5% (v/v) CO2 at 37° C. and were maintained in exponential growth phase. For maintenance, cells were passaged twice per week and seeded at ratios 1:10. Cell proliferation was determined using the Cell Titer-Blue Assay kit (Promega, Madison, Wis., USA). Cells were seeded at 10,000 cells per well in black flat bottom 96-well plates (Nalge Nunc, Penfield, N.Y., USA) and treated with serial doses of hydroxytyrosol (0-3200 μM) and oleuropein (0-12800 μM) for 24, 48 and 120 hours at 37° C., 5% (v/v) CO2. Following incubation with the test samples, Cell-Titer Blue reagent (20 μl per 100 μL) was added to each well and mixed gently for 5 sec prior to 4 hr incubation at 37° C. in a humidified atmosphere of 5% CO2. Fluorescence intensity (λex=550 nm and λem=615 nm) was determined using a Perkin Elmer Victor3 multilabel microplate counter (PerkinElmer, Waltham, Mass., USA). Data were expressed as % relative cell viability compared to untreated cells after correction of subtracting the media control fluorescence reading.

R100 cells = format: cell-based, human; conditions: for EC50: Homo sapiens
Description: as §1, with “Human acute T lymphoblast leukemic CEM-CCRF” for “Human chronic myelogenous leukemia K562”, “cells (ATTC NO. CCL-119), obtained from the ATCC” for “cells (ATCC No. CCL-243), human large B-lymphocyte non-Hodgkin's lymphoma LCL cells, human leukemic monocyte lymphoma U937 cells (ATCC No. CRL-1593.2), human prostate adenocarcinoma PC3 (ATCC No. CRL-1435) and human gastric carcinoma SNU-16 cells (ATCC No. CRL-5974)”, “in a Modified Eagle's Medium (α-MEM)” for “in complete-Royal Park Memorial Institute (RPMI) 1640 medium”, “with 2” for “with 20”, “(v/v) FBS,” for “(v/v) fetal bovine serum (FBS),”, “(GIBCO-Invitrogen). Similarly, CEM-CCRF—P-glycoprotein (PGP)—over expressing, vinblastine derivative—R100 cells, expressing multi-drug resistance (MDR) were grown in a-MEM supplemented with 2 mmol/L HEPES (pH 7.4), 10% (v/v) FBS, 2 mmol/L L-glutamine, 80 units gentamicin and 100 ng/ml vinblastine. R100 cells were cultured in a-MEM/FBS/gentamicin media without vinblastine for 7 days prior to use in experiments.” for “(GIBCO-Invitrogen).”

CEM-CCRF cells = format: cell-based, human; conditions: for EC50: Homo sapiens
Description: as §1, with “Human acute T lymphoblast leukemic CEM-CCRF” for “Human chronic myelogenous leukemia K562”, “cells (ATTC NO. CCL-119), obtained from the ATCC” for “cells (ATCC No. CCL-243), human large B-lymphocyte non-Hodgkin's lymphoma LCL cells, human leukemic monocyte lymphoma U937 cells (ATCC No. CRL-1593.2), human prostate adenocarcinoma PC3 (ATCC No. CRL-1435) and human gastric carcinoma SNU-16 cells (ATCC No. CRL-5974)”, “in a Modified Eagle's Medium (α-MEM)” for “in complete-Royal Park Memorial Institute (RPMI) 1640 medium”, “with 2” for “with 20”, “(v/v) FBS,” for “(v/v) fetal bovine serum (FBS),”, “(GIBCO-Invitrogen). Similarly, CEM-CCRF—P-glycoprotein (PGP)—over expressing, vinblastine derivative—R100 cells, expressing multi-drug resistance (MDR) were grown in a-MEM supplemented with 2 mmol/L HEPES (pH 7.4), 10% (v/v) FBS, 2 mmol/L L-glutamine, 80 units gentamicin and 100 ng/ml vinblastine. R100 cells were cultured in a-MEM/FBS/gentamicin media without vinblastine for 7 days prior to use in experiments.” for “(GIBCO-Invitrogen).”

MyLa CD4+ cells = format: cell-based, human; conditions: for EC50: Homo sapiens
Description: (§2) Human cutaneous T cell lymphoma MyLa cells expressing CD4^+ (ECACC No. 95051032) and CD8^+ (ECACC No. 95051033) were obtained from the European Culture Collection of Cell Cultures (ECACC; CAMR, Salisbury, UK) and maintained in complete-RPMI 1640 medium supplemented with 2 mM glutamine (GIBCO-Invitrogen), 10% (v/v) human AB serum (Lonza, Basel, Switzerland) and 100 u/mL IL-2 (Sigma-Aldrich, USA) or 100 u/mL IL-2 (Sigma-Aldrich, USA) with 100 u/mL IL-4 (R&D Systems, MN, USA) respectively. Cells were cultured in suspension in a humidified atmosphere of 5% (v/v) CO2 at 37° C. and were maintained in exponential growth phase. For maintenance, cells were passaged three times per week and seeded at ratios 1:2. Liver hepatocellular carcinoma Hep G2 cells (ATCC No. […]) were maintained in RPMI-1640 supplemented with 10% fetal bovine serum (FBS), and were cultured in 75 cm^2 T-flask and maintained at 37° C. in 5% CO2 humidified incubator. Cell proliferation was determined using the Cell Titer-Blue Assay kit (Promega, Madison, Wis., USA). Cells were seeded at 10,000 cells per well in black flat bottom 96-well plates (Nalge Nunc, Penfield, N.Y., USA) and treated with serial doses of hydroxytyrosol (0-3200 μM) and oleuropein (0-12800 μM) for 24, 48 and 120 hours at 37° C., 5% (v/v) CO2. Following incubation with the test samples, Cell-Titer Blue reagent (20 μl per 100 μL) was added to each well and mixed gently for 5 sec prior to 4 hr incubation at 37° C. in a humidified atmosphere of 5% CO2. Fluorescence intensity (λex=550 nm and λem=615 nm) was determined using a Perkin Elmer Victor3 multilabel microplate counter (PerkinElmer, Waltham, Mass., USA). Data were expressed as % relative cell viability compared to untreated cells after correction of subtracting the media control fluorescence reading.

MyLa CD8+ cells = format: cell-based, human; conditions: for EC50: Homo sapiens
Description: as §2

Hep G2 cells = format: cell-based, human; conditions: for EC50: Homo sapiens, HepG2
Description: as §2

SMILES | EC50 (SNU-16 cells; SNU-16, 24 hr) [µM] | EC50 (SNU-16 cells; SNU-16, 48 hr) [µM] | EC50 (R100 cells; R100, 24 hr) [µM] | EC50 (R100 cells; R100, 48 hr) [µM] | EC50 (R100 cells; R100, 120 hr) [µM] | EC10 (concentration required to reduce the cell viability of the population to 10%) (R100 cells; R100, 120 hr) [µM] | EC10 (concentration required to reduce the cell viability of the population to 10%) (CEM-CCRF cells; 120 hr) [µM] | EC50 (CEM-CCRF cells; 24 hr) [µM] | EC50 (CEM-CCRF cells; 48 hr) [µM] | EC50 (CEM-CCRF cells; 120 hr) [µM] | EC10 (concentration required to reduce the cell viability of the population to 10%) (MyLa CD4+ cells; 120 hr) [µM] | EC50 (MyLa CD4+ cells; 24 hr) [µM] | EC50 (MyLa CD4+ cells; 48 hr) [µM] | EC50 (MyLa CD4+ cells; 120 hr) [µM] | EC10 (concentration required to reduce the cell viability of the population to 10%) (MyLa CD8+ cells; 120 hr) [µM] | EC50 (MyLa CD8+ cells; 24 hr) [µM] | EC50 (MyLa CD8+ cells; 48 hr) [µM] | EC50 (MyLa CD8+ cells; 120 hr) [µM] | EC10 (concentration required to reduce the cell viability of the population to 10%) (Hep G2 cells; Hep-G2, 120 hr) [µM] | EC50 (Hep G2 cells; Hep-G2, 24 hr) [µM] | other results
C/C=C1/[C@H](O[C@@H]2O[C@H](CO)[C@@H](O)[C@H](O)[C@H]2O)OC=C(C(=O)OC)[C@H]1CC(=O)OCCc1ccc(O)c(O)c1 [OL, oleuropein] | 2820 | 800 | 320 | 1000 | 250 | 530 | 700 | 437 | 1800 | 325 | 4800 | 647 | 3800 | 3400 | 3020 | 647 | 3600 | 270 | 2600 | 703 | EC50 (Hep G2 cells; Hep-G2, 48 hr): 2400 µM; EC50 (Hep G2 cells; Hep-G2, 120 hr): 1300 µM
OCCc1ccc(O)c(O)c1 [HT, 4-(2-hydroxyethyl)-1,2-benzenediol] | 1100 | 80 | 190 | 100 | 40 | 86 | 80 | 121 | 100 | 42 | 760 | 1010 | 870 | 400 | 650 | 460 | 450 | 230 | 360 | 427 | EC50 (Hep G2 cells; Hep-G2, 48 hr): 470 µM; EC50 (Hep G2 cells; Hep-G2, 120 hr): 205 µM
